Assay results: US8748417B2, “Amino-pyrrolidine-azetidine diamides as monoacylglycerol lipase inhibitors” (Janssen Pharmaceutica, NV, priority 2010, dated 2014)
Residue numbers refer to the chain shown, from its start. pIC50, pKd: −log10 of the molar value.

What was measured:
[1] = biological target: T1, purified mutant MGL (mut-MGLL 11-313 L179S L186S) (Homo sapiens, UniProt Q99685, L169S/L176S); assay: MGL enzyme activity assay (4MU-B cleavage), mutant MGL; format: biochemical; details: mutant MGL 5 nM, 4MU-B 10 μM, 37° C.; read-out: MGL mutant inh IC50
T1 construct: purified mutant MGL (mut-MGLL 11-313 L179S L186S)
T1 sequence (Q99685 1-303 L169S/L176S): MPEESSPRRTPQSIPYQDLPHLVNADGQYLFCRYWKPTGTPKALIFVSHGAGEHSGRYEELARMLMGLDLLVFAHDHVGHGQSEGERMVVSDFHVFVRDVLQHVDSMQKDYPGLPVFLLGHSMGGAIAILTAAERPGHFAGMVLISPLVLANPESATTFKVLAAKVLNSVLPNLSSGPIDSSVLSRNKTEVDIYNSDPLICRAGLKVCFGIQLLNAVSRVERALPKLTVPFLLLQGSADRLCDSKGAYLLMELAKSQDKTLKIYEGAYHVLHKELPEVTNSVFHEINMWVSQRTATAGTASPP
Method in brief: (§1)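 Enzyme in 20 mM PIPES pH 7.0, 150 mM NaCl, 0.001% Tween 20 with 4MU-B at 10 μM final and MGL at 5 nM final; compounds 17 to 0.0003 μM final, enzyme added last. Fluorescence (ex 335/em 440 nm) followed at 37° C for 5 min; IC50 from fit of fractional activity versus inhibitor concentration.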

[2] = biological target: T2, purified wild type MGL (wt-MGLL 6H-11-313) (Homo sapiens, UniProt Q99685); assay: MGL enzyme activity assay (4MU-B cleavage), wild type MGL; format: biochemical; details: wild type MGL 5 nM, 4MU-B 10 μM, 37° C.; read-out: MGL wild type inh IC50
T2 construct: purified wild type MGL (wt-MGLL 6H-11-313)
T2 sequence (Q99685 1-303): T1 sequence (Q99685 1-303 L169S/L176S) with S169L, S176L
Method in brief: as §1

[3] = system: MGL (rat brain homogenate); assay: 2-AG accumulation assay in rat brain homogenate; format: biochemical; details: compound 1 μM, percent of vehicle 2-AG accumulation
Method in brief: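 Rat brain homogenate was incubated with compound for 15 min at 37° C., after which CaCl2 was added to a final concentration of 10 mM and incubation continued for 15 min at 37° C. in 5 mL total. Reactions were stopped with 6 mL of 2:1 chloroform/methanol, and 2-AG accumulated in the organic phase was quantified by HPLC/MS.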

[4] = system: CFA-induced paw radiant heat hypersensitivity; assay: CFA-induced paw radiant heat hypersensitivity; format: in vivo; details: rat, 30 mg/kg p.o., 20% HPβCD, last time point 300 min; for inhibition in vivo at 30 mg/kg: po, 5 h, group mean values, read-out: Method 1: peak % reversal; for Method 2: peak % reversal: individual animal values
Protocol: Each rat was placed in a test chamber on a warm glass surface and allowed to acclimate for approximately 10 min. A radiant thermal stimulus (beam of light) was focused through the glass onto the plantar surface of each hind paw in turn. The thermal stimulus was automatically shut off by a photoelectric relay when the paw was moved or when the cut-off time was reached (20 sec for radiant heat at ˜5 amps). An initial (baseline) response latency to the thermal stimulus was recorded for each animal prior to the injection of complete Freund's adjuvant (CFA). Twenty-four hours following intraplantar CFA injection, the response latency of the animal to the thermal stimulus was re-evaluated and compared to the animal's baseline response time. […] Immediately following the post-CFA latency assessment, the indicated test compound or vehicle was administered orally. Post-compound treatment withdrawal latency was assessed at fixed time intervals, typically 30, 60, 120, 180, and 300 min. • The percent reversal (% R) of hypersensitivity was calculated in one of two different ways: 1) using group mean values or 2) using individual animal values. More specifically: • Method 1. For all compounds, the % R of hypersensitivity was calculated using the mean value for groups of animals at each time point according to the following formula: % reversal=[(group treatment response−group CFA response)/(group baseline response−group CFA response)]×100 • Results are given for the maximum % reversal observed for each compound at any time point tested. • Method 2. For some compounds, the % R of hypersensitivity was calculated separately for each animal according to the following formula: % reversal=[(individual treatment response−individual CFA response)/(individual baseline response−individual CFA response)]×100. • Results are given as a mean of the maximum % reversal values calculated for each individual animal.

mutant MGL = biological target: T3, mutant MGL (Homo sapiens, UniProt Q99685, L169S/L176S); assay: MGL ThermoFluor assay - mutant; format: binding; details: qNMR-corrected compound concentration; read-out: MGL mutant ThermoFluor qKd
T3 construct: purified mutant MGL (mut-MGLL 11-313 L179S L186S)
T3 sequence (Q99685 1-303 L169S/L176S): T1 sequence (Q99685 1-303 L169S/L176S)
Protocol: The ThermoFluor (TF) assay is a 384-well plate-based binding assay that measures thermal stability of proteins^1,2. The experiments were carried out using instruments available from Johnson & Johnson Pharmaceutical Research & Development, LLC. TF dye used in all experiments was 1,8-ANS (Invitrogen: A-47). Final TF assay conditions used for MGL studies were 0.07 mg/ml of mutant MGL, 100 μM ANS, 200 mM NaCl, 0.001% Tween-20 in 50 mM PIPES (pH=7.0).
Screening compound plates contained 100% DMSO compound solutions at a single concentration. For follow-up concentration-response studies, compounds were arranged in a pre-dispensed plate (Greiner Bio-one: 781280), wherein compounds were serially diluted in 100% DMSO across 11 columns within a series. Columns 12 and 24 were used as DMSO reference and contained no compound. For both single and multiple compound concentration-response experiments, the compound aliquots (46 nL) were robotically predispensed directly into 384-well black assay plates (Abgene: TF-0384/k) using the Hummingbird liquid handler. Following compound dispension, protein and dye solutions were added to achieve the final assay volume of 3 μL. The assay solutions were overlayed with 1 μL of silicone oil (Fluka, type DC 200: 85411) to prevent evaporation.
Bar-coded assay plates were robotically loaded onto a thermostatically controlled PCR-type thermal block and then heated from 40 to 90° C. degrees at a ramp-rate of 1° C./min for all experiments. Fluorescence was measured by continuous illumination with UV light (Hamamatsu LC6), supplied via fiber optics and filtered through a band-pass filter (380-400 nm; >6 OD cutoff). Fluorescence emission of the entire 384-well plate was detected by measuring light intensity using a CCD camera (Sensys, Roper Scientific) filtered to detect 500±25 nm, resulting in simultaneous and independent readings of all 384 wells. A single image with 20-sec exposure time was collected at each temperature, and the sum of the pixel intensity in a given area of the assay plate was recorded vs temperature and fit to standard equations to yield the Tm^1. • 1. Pantoliano, M. W., Petrella, E. C., Kwasnoski, J. D., Lobanov, V. S., Myslik, J., Graf, E., Carver, T., Asel, E., Springer, B. A., Lane, P., and Salemme, F. R. (2001) J Biomol Screen 6, 429-40. • 2. Matulis, D., Kranz, J. K., Salemme, F. R., and Todd, M. J. (2005) Biochemistry 44, 5258-66.
The Kd values for certain compounds of Formula (I) were determined from a fit of the equation to the concentration-response plot of the fractional activity as a function of […]. For some experiments, quantitative NMR spectroscopy (qNMR) was used to measure concentration of the initial 100% DMSO compound solutions and, using the same fitting method, qKd values were determined.

[5] = system: murine model of acute inflammation; details: Comelli et al., Brit J Pharmacol, 2007; cited from earlier work

Row | Structure (SMILES) | pIC50 [1] | pIC50 [2] | Rat Brain 2AG % VehCntrl (%) @1 μM [3] [%] | inhibition in vivo at 30 mg/kg [4] [%] | Method 2: peak % reversal [4] [%] | pKd (mutant MGL) | antinociceptive effect [5]
1 | O=C(c1ccc(-c2cccc(C(F)(F)F)c2)cc1)N1CC(N[C@H]2CN(C(=O)c3ccccc3)CC2F)C1 (single isomer, unassigned) [Cpd 63] | 8.20 | 7.18 | 696 | -8.2 |  |  | 
2 | O=C(c1ccc(-c2cccc(C(F)(F)F)c2)cc1)N1CC(N[C@H]2CCN(C(=O)c3ccccc3)C2)C1 [Cpd 16, (3S)-1-(Phenylcarbonyl)-N-(1-{[3′-(trifluoromethyl)biphenyl-4-yl]carbonyl}azetidin-3-yl)pyrrolidin-3-amine] | > 8.30 | 7.78 | 220 | 78 | 87.7 |  | 
3 | Cc1c(C(=O)N2CC(N[C@H]3CCN(C(=O)c4ccccc4)C3)C2)sc2ccc(-c3ccc(C(F)(F)F)cc3)cc12 [Cpd 40, (3S)-N-[1-({3-Methyl-5-[4-(trifluoromethyl)phenyl]-1-benzothiophen-2-yl}carbonyl)azetidin-3-yl]-1-(phenylcarbonyl)pyrrolidin-3-amine] | 7.72 | 7.80 | 1145 | 15.9 | 17.3 |  | 
4 | O=C(c1ccc2c(-c3cccc(C(F)(F)F)c3)c[nH]c2c1)N1CC(N[C@H]2CCN(C(=O)c3ccccc3)C2)C1 [Cpd 103, (3S)-1-(Phenylcarbonyl)-N-[1-({3-[3-(trifluoromethyl)phenyl]-1H-indol-6-yl}carbonyl)azetidin-3-yl]pyrrolidin-3-amine] |  | 7.82 | 332 | 28 |  |  | 
5 | O=C(c1ccc2c(-c3cccc(C(F)(F)F)c3)c[nH]c2c1)N1CC(N[C@H]2CCN(C(=O)c3nccs3)C2)C1 [Cpd 105, (3S)-1-(1,3-Thiazol-2-ylcarbonyl)-N-[1-({3-[3-(trifluoromethyl)phenyl]-1H-indol-6-yl}carbonyl)azetidin-3-yl]pyrrolidin-3-amine] |  | 7.74 | 812 | 37.2 |  |  | 
6 | O=C(c1ccc(-c2cccc(C(F)(F)F)c2)cc1)N1CC(N[C@H]2CCN(C(=O)c3cscn3)C2)C1 [Cpd 114, (3S)-1-(1,3-Thiazol-4-ylcarbonyl)-N-(1-{[3′-(trifluoromethyl)biphenyl-4-yl]carbonyl}azetidin-3-yl)pyrrolidin-3-amine] |  | 7.78 | 311 | 25.1 |  |  | 
7 | O=C(c1ccc2c(ccn2-c2ccc(F)cc2)c1)N1CC(N[C@H]2CCN(C(=O)c3nccs3)C2)C1 [Cpd 159, (3S)-N-(1-{[1-(4-Fluorophenyl)-1H-indol-5-yl]carbonyl}azetidin-3-yl)-1-(1,3-thiazol-2-ylcarbonyl)pyrrolidin-3-amine] |  | 8.22 | 476 | 56.5 |  |  | 
8 | Cn1cc(-c2cccc(C(F)(F)F)c2)c2ccc(C(=O)N3CC(N[C@H]4CCN(C(=O)c5nccs5)C4)C3)cc21 [Cpd 162, (3S)-N-[1-({1-Methyl-3-[3-(trifluoromethyl)phenyl]-1H-indol-6-yl}carbonyl)azetidin-3-yl]-1-(1,3-thiazol-2-ylcarbonyl)pyrrolidin-3-amine] |  | 8.20 | 911 | 69.7 |  |  | 
9 | O=C(c1nccs1)N1CC[C@H](NC2CN(C(=O)c3cccc4c3ccn4-c3ccc(F)cc3)C2)C1 [Cpd 214, (3S)-N-(1-{[1-(4-Fluorophenyl)-1H-indol-4-yl]carbonyl}azetidin-3-yl)-1-(1,3-thiazol-2-ylcarbonyl)pyrrolidin-3-amine] |  | 6.97 | 524 |  |  | 6.28 | 
10 | O=C(c1nccs1)N1CC[C@H](NC2CN(C(=O)c3cccc4c3CCN4c3ccc(F)cc3)C2)C1 [Cpd 216, (3S)-N-(1-{[1-(4-Fluorophenyl)-2,3-dihydro-1H-indol-4-yl]carbonyl}azetidin-3-yl)-1-(1,3-thiazol-2-ylcarbonyl)pyrrolidin-3-amine] |  | 7.02 | 260 |  |  | 6.34 | 
11 | Cn1cc(Cc2ccc(F)cc2)c2ccc(C(=O)N3CC(N[C@H]4CCN(C(=O)c5nccs5)C4)C3)cc21 [Cpd 221, (3S)-N-(1-{[3-(4-Fluorobenzyl)-1-methyl-1H-indol-6-yl]carbonyl}azetidin-3-yl)-1-(1,3-thiazol-2-ylcarbonyl)pyrrolidin-3-amine] |  | > 8.30 | 878 |  |  | 7.05 | 
12 | O=C(Nc1cccc(-c2ccccc2)c1)OC1CCCCC1 [URB602] |  |  |  |  |  |  | showed an antinociceptive effect
